Columns and labels:
SETVI [1] = test: Pre-emergence herbicidal action against SETVI; type: in vivo, Setaria viridis; details: dosage 80 g/ha
How it was run: (§1)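 Sandy loam pots, seeds covered with soil, then surface-treated with WP or EC formulations at 600–800 l/ha water plus 0.2% wetting agent. Greenhouse, 3 weeks. Percent damage vs untreated controls.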

LOLRI [2] = test: Pre-emergence herbicidal action against LOLRI; type: in vivo, Lolium rigidum; details: Lolium rigidum, 504 h, 80 g/ha
How it was run: as §1

ECHCG [3] = test: Post-emergence herbicidal action against ECHCG; type: in vivo, Echinochloa crus-galli
How it was run: (§2)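 Visual % rating (0% = as untreated, 100% = dead) ~3 wk after spraying one-leaf-stage plants grown in sandy loam; WP/EC in water at 600–800 l/ha, 0.2% wetting agent.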

ABUTH [4] = test: Pre-emergence herbicidal action against ABUTH; type: in vivo, Abutilon theophrasti
How it was run: as §1

MATIN [5] = test: Pre-emergence herbicidal action against MATIN; type: in vivo, Matricaria inodora; details: Tripleurospermum inodorum, 504 h
How it was run: as §1

AVEFA [6] = test: Post-emergence herbicidal action against AVEFA; type: in vivo, Avena fatua; details: 20 g/ha, visual assessment about 3 weeks after treatment, 100% = plants have died, 0% = like control plants
How it was run: as §2

LOLRI [7] = test: Post-emergence herbicidal action against LOLRI; type: in vivo, Lolium rigidum; details: dosage 20 g/ha
Method: Seeds of monocotyledonous and dicotyledonous weed and crop plants are laid out in sandy loam soil in wood-fiber pots, covered with soil and cultivated in a greenhouse under good growth conditions. 2 to 3 weeks after sowing, the test plants are treated at the one-leaf stage. The compounds of the invention, formulated in the form of wettable powders (WP) or as emulsion concentrates (EC), are then sprayed onto the green parts of the plants in the form of an aqueous suspension or emulsion at a water application rate equivalent to 600 to 800 l/ha, with addition of 0.2% wetting agent. After the test plants have been left to stand in the greenhouse under optimal growth conditions for about 3 weeks, the action of the preparations is assessed visually in comparison to untreated controls (herbicidal action in percent (%): 100% activity=the plants have died, 0% activity=like control plants). […] The tables below illustrate, in an illustrative manner, the post-emergence herbicidal action of the compounds of the invention, the herbicidal activity being stated in percent.

VERPE = test: Post-emergence herbicidal action against VERPE; type: in vivo, Veronica persica; details: Veronica persica, 504 h, 20 g/ha
How it was run: as §2

ALOMY [8] = test: Post-emergence herbicidal action against ALOMY; type: in vivo, Alopecurus myosuroides; details: visual assessment about 3 weeks after treatment vs untreated controls
How it was run: as §2

AVEFA [9] = test: Pre-emergence herbicidal action against AVEFA; type: in vivo, Avena fatua; details: Avena fatua, 504 h; 80 g/ha, pre-emergence
How it was run: as §1

ALOMY [10] = test: Pre-emergence herbicidal action against ALOMY; type: in vivo, Alopecurus myosuroides; details: 80 g/ha, pre-emergence, scored visually after 3 weeks vs untreated controls (100% = plants have died, 0% = like control plants)
How it was run: as §1

DIGSA [11] = test: Post-emergence herbicidal action against DIGSA; type: in vivo, Digitaria sanguinalis
How it was run: as §2

VIOTR [12] = test: Pre-emergence herbicidal action against VIOTR; type: in vivo, Viola tricolor
How it was run: as §1

AMARE [13] = test: Pre-emergence herbicidal action against AMARE; type: in vivo, Amaranthus retroflexus
How it was run: as §1

AMARE [14] = test: Post-emergence herbicidal action against AMARE; type: in vivo, Amaranthus retroflexus; details: 20 g/ha, visual assessment about 3 weeks after treatment, 100% = plants have died, 0% = like control plants
How it was run: as §2

SETVI [15] = test: Post-emergence herbicidal action against SETVI; type: in vivo, Setaria viridis
How it was run: as §2

PHBPU [16] = test: Post-emergence herbicidal action against PHBPU; type: in vivo, Pharbitis purpurea; details: dosage 20 g/ha
How it was run: as §2

ECHCG [17] = test: Pre-emergence herbicidal action against ECHCG; type: in vivo, Echinochloa crus-galli
How it was run: as §1

PHBPU [18] = test: Pre-emergence herbicidal action against PHBPU; type: in vivo, Pharbitis purpurea; details: Ipomoea purpurea, 504 h, dosage 80 g/ha
How it was run: as §1

DIGSA [19] = test: Pre-emergence herbicidal action against DIGSA; type: in vivo, Digitaria sanguinalis
How it was run: as §1

MATIN [20] = test: Post-emergence herbicidal action against MATIN; type: in vivo, Matricaria inodora; details: dosage 20 g/ha
How it was run: as §2

ABUTH [21] = test: Post-emergence herbicidal action against ABUTH; type: in vivo, Abutilon theophrasti; details: visual assessment about 3 weeks after treatment vs untreated controls
How it was run: as §2

STEME [22] = test: Post-emergence herbicidal action against STEME; type: in vivo, Stellaria media
How it was run: as §2

VIOTR [23] = test: Post-emergence herbicidal action against VIOTR; type: in vivo, Viola tricolor
How it was run: as §2

POLCO = test: Pre-emergence herbicidal action against POLCO; type: in vivo, Polygonum convolvulus; details: dosage 80 g/ha
How it was run: as §1

STEME [24] = test: Pre-emergence herbicidal action against STEME; type: in vivo, Stellaria media
How it was run: as §1

[25] = 80 g/ha, scored visually after 3 weeks vs untreated controls (100% = plants have died, 0% = like control plants)

Structure (SMILES): Cn1nnnc1NC(=O)c1ccc(Br)c(C(=O)NCC(F)(F)F)c1Cl [Example 1-181]
- pest or weed control at 80 g/ha (SETVI [1]; Setaria viridis, 504 h): 100%
- pest or weed control at 80 g/ha (LOLRI [2]): 80%
- pest or weed control at 5 g/ha (ECHCG [3]; Echinochloa crus-galli, 504 h, dosage 5 g/ha): 80%
- pest or weed control at 20 g/ha (ECHCG [3]; Echinochloa crus-galli, 504 h, dosage 20 g/ha): 80%
- pest or weed control at 80 g/ha (ABUTH [4]; Abutilon theophrasti, 504 h, 80 g/ha, scored visually after 3 weeks vs untreated controls (100% = plants have died, 0% = like control plants)): 100%
- pest or weed control at 20 g/ha (ABUTH [4]; Abutilon theophrasti, 504 h, dosage 20 g/ha, scored visually after 3 weeks vs untreated controls, 100% = plants have died, 0% = like control plants, read-out: Pre-emergence action against ABUTH (herbicidal activity in percent)): 90%
- pest or weed control at 20 g/ha (MATIN [5]; dosage 20 g/ha): 90%
- pest or weed control at 80 g/ha (MATIN [5]; dosage 80 g/ha): 100%
- pest or weed control at 20 g/ha (AVEFA [6]; Avena fatua, 504 h): 90%
- pest or weed control at 20 g/ha (LOLRI [7]; Lolium rigidum, 504 h): 80%
- pest or weed control at 20 g/ha (VERPE): 90%
- pest or weed control at 5 g/ha (ALOMY [8]; Alopecurus myosuroides, 504 h, dosage 5 g/ha): 80%
- pest or weed control at 20 g/ha (ALOMY [8]; Alopecurus myosuroides, 504 h, dosage 20 g/ha): 100%
- pest or weed control at 80 g/ha (AVEFA [9]): 80%
- pest or weed control at 80 g/ha (ALOMY [10]; Alopecurus myosuroides, 504 h): 100%
- pest or weed control at 5 g/ha (DIGSA [11]; Digitaria sanguinalis, 504 h, 5 g/ha): 90%
- pest or weed control at 20 g/ha (DIGSA [11]; Digitaria sanguinalis, 504 h, 20 g/ha): 90%
- pest or weed control at 20 g/ha (VIOTR [12]; Viola tricolor, 504 h, dosage 20 g/ha): 100%
- pest or weed control at 80 g/ha (VIOTR [12]; Viola tricolor, 504 h, dosage 80 g/ha): 100%
- pest or weed control at 20 g/ha (AMARE [13]; Amaranthus retroflexus, 504 h, 20 g/ha, scored visually after 3 weeks vs untreated controls, 100% = plants have died, 0% = like control plants): 100%
- pest or weed control at 80 g/ha (AMARE [13]; Amaranthus retroflexus, 504 h, 80 g/ha, scored visually after 3 weeks vs untreated controls, 100% = plants have died, 0% = like control plants): 100%
- pest or weed control at 20 g/ha (AMARE [14]; Amaranthus retroflexus, 504 h): 100%
- pest or weed control at 20 g/ha (SETVI [15]; Setaria viridis, 504 h, dosage 20 g/ha): 90%
- pest or weed control at 20 g/ha (PHBPU [16]; Ipomoea purpurea, 504 h): 90%
- pest or weed control at 80 g/ha (ECHCG [17]; Echinochloa crus-galli, 504 h, 80 g/ha): 100%
- pest or weed control at 80 g/ha (PHBPU [18]): 80%
- pest or weed control at 20 g/ha (DIGSA [19]; Digitaria sanguinalis, 504 h, dosage 20 g/ha): 100%
- pest or weed control at 80 g/ha (DIGSA [19]; Digitaria sanguinalis, 504 h, dosage 80 g/ha): 100%

Structure (SMILES): CCNC(=O)c1c(C(F)F)ccc(C(=O)Nc2nnco2)c1Cl [Example 5-123]
- Post-emergence action against MATIN in % (MATIN [20]): 80%
- Pre-emergence action against SETVI in % (SETVI [1]): 100%
- Post-emergence action against ABUTH in % (ABUTH [21]; dosage 5 g/ha): 90%
- Post-emergence action against ABUTH in % (ABUTH [21]; dosage 20 g/ha): 90%
- Post-emergence action against ECHCG in % (ECHCG [3]; dosage 5 g/ha): 90%
- Post-emergence action against ECHCG in % (ECHCG [3]; dosage 20 g/ha): 90%
- Pre-emergence action against ABUTH (herbicidal activity) (ABUTH [4]; [25]): 100%
- Pre-emergence action against ABUTH (herbicidal activity in percent) (ABUTH [4]; dosage 20 g/ha, scored visually after 3 weeks vs untreated controls, 100% = plants have died, 0% = like control plants): 100%
- Post-emergence action against STEME in % (STEME [22]; 20 g/ha): 90%
- Post-emergence action against STEME in % (STEME [22]; dosage 5 g/ha): 90%
- Post-emergence action against VIOTR in % (VIOTR [23]; 5 g/ha): 80%
- Post-emergence action against VIOTR in % (VIOTR [23]; 20 g/ha): 90%
- Post-emergence action at 20 g/ha against AVEFA in % (AVEFA [6]): 80%
- Post-emergence action against LOLRI in % (LOLRI [7]): 80%
- Pre-emergence action against POLCO in % (POLCO): 80%
- Post-emergence action against ALOMY in % (ALOMY [8]; dosage 20 g/ha): 80%
- Pre-emergence action against STEME in % (STEME [24]; dosage 20 g/ha): 90%
- Pre-emergence action against STEME in % (STEME [24]; dosage 80 g/ha): 90%
- Pre-emergence action against ALOMY (herbicidal activity) (ALOMY [10]): 80%
- Post-emergence action against DIGSA in % (DIGSA [11]; 5 g/ha): 90%
- Post-emergence action against DIGSA (DIGSA [11]; 20 g/ha): 90%
- Pre-emergence action against VIOTR in % (VIOTR [12]; dosage 20 g/ha): 90%
- Pre-emergence action against VIOTR in % (VIOTR [12]; dosage 80 g/ha): 100%
- Pre-emergence action against AMARE in % (AMARE [13]; 20 g/ha, scored visually after 3 weeks vs untreated controls, 100% = plants have died, 0% = like control plants): 100%
- Pre-emergence action against AMARE in % (AMARE [13]; [25]): 100%
- Post-emergence action at 20 g/ha against AMARE in % (AMARE [14]): 90%
- Post-emergence action against SETVI in % (SETVI [15]; dosage 5 g/ha): 80%
- Post-emergence action against SETVI in % (SETVI [15]; dosage 20 g/ha): 80%
- Post-emergence action against PHBPU in % (PHBPU [16]): 80%
- Pre-emergence action against ECHCG in % (ECHCG [17]; 20 g/ha): 90%
- Pre-emergence action against ECHCG in % (ECHCG [17]; 80 g/ha): 100%
- Pre-emergence action against DIGSA in % (DIGSA [19]; dosage 20 g/ha): 100%
- Pre-emergence action against DIGSA in % (DIGSA [19]; dosage 80 g/ha): 100%
